The values below come from ChEMBL document CHEMBL1201862, “PubChem BioAssay data set” (2004).

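1) Cells in 96-well plates. 2) Compound, 48 h, 5 concentrations. 3) Linear interpolation between surrounding doses. 4) Unreached endpoint = highest concentration. GI50 = concentration required for 50% inhibition of growth.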 Activity calls are given as the source filed them. Rule as the data show it: active = GI50 up to about 1.1 µM and inactive = higher. Bounds are passed on as bounds.

Some test systems named below: CAKI-1; CCRF-CEM; HOP-62; HOP-92; IGROV-1; LOX IMVI; M14; MCF7; MDA-N; NCI-H23; NCI-H460; NCI/ADR-RES; OVCAR-8; SF-295; SK-MEL-2; SR; T47D; TK-10.
Test in all cases: NCI-60 cell line screen, 48 h

`CCOC(=O)/C=C/[C@H](O[Si](c1ccccc1)(c1ccccc1)c1ccccc1)C(C)(C)C`: the GI50 with CAKI-1 was 28.4 µM (inactive); with CCRF-CEM, 15.8 µM (inactive); in the assay with HOP-62, > 31.6 µM (inactive); in the assay on HOP-92, > 31.6 µM (inactive); in the assay on IGROV-1, > 31.6 µM (inactive); with LOX IMVI, > 31.6 µM (inactive). Moreover, the GI50 was 73.8 µM (inactive) in the assay on M14; > 31.6 µM (inactive) with MCF7; > 31.6 µM (inactive) with MDA-N; > 31.6 µM (inactive) in the assay with NCI-H23; > 10 µM (inactive) in the assay on NCI-H460; 28.5 µM (inactive) in the assay on NCI/ADR-RES. The GI50 in the assay on OVCAR-8 was > 31.6 µM (inactive); in the assay on SF-295 it was > 31.6 µM (inactive); in the assay on SK-MEL-2, > 31.6 µM (inactive); in the assay on SR, > 10 µM (inactive); with T47D, 11.5 µM (inactive); with TK-10, > 31.6 µM (inactive).

In the case of `CC(CO)(CO)/N=C/c1cc(I)cc(I)c1O`, the GI50 in the assay with CAKI-1 is 22.2 µM (inactive); with CCRF-CEM, 9.98 µM (inactive); in the assay with HOP-62 it was 11.2 µM (inactive); with HOP-92, 14 µM (inactive); in the assay with IGROV-1, 9.4 µM (inactive); in the assay with LOX IMVI, 10.3 µM (inactive). The GI50 in the assay with M14 is 14.1 µM (inactive); with MCF7, 19.5 µM (inactive); with MDA-N it was 19.7 µM (inactive); with NCI-H23 it was 21.8 µM (inactive); in the assay with NCI-H460, 22.2 µM (inactive); in the assay with NCI/ADR-RES it was 14.2 µM (inactive). In addition, the GI50 in the assay on OVCAR-8 is 15.5 µM (inactive); with SF-295, 15.8 µM (inactive); in the assay on SK-MEL-2 it was 12.2 µM (inactive); with SR it was 8.53 µM (inactive); in the assay with T47D, 23.1 µM (inactive); in the assay with TK-10 it was 26 µM (inactive).

In the case of `Cc1nc2cccc(F)c2c(=O)n1-c1nnc(C2CC2)s1`, the GI50 with CAKI-1, in the assay on CCRF-CEM, with HOP-62, with HOP-92, in the assay with IGROV-1 and with LOX IMVI was > 10 µM (inactive) each time. Also, the GI50 in the assay with M14, in the assay on MCF7, in the assay on MDA-N, with NCI-H23, with NCI-H460 and in the assay on NCI/ADR-RES was > 10 µM (inactive) in each case. Also, the GI50 with OVCAR-8, with SF-295, in the assay with SK-MEL-2, with SR, with T47D and with TK-10 was > 10 µM (inactive) throughout.

Regarding `COc1cc2c(cc1OCCCN1C(=O)c3cccc4cccc(c34)C1=O)N=C[C@@H]1CCCN1C2=O`, the GI50 was 25.4 µM (inactive) in the assay with CAKI-1; 5.65 µM (inactive) in the assay with CCRF-CEM; > 86.7 µM (inactive) in the assay on HOP-62; 22.2 µM (inactive) in the assay on HOP-92; 12.2 µM (inactive) with IGROV-1; 33.9 µM (inactive) with LOX IMVI. Further, the GI50 in the assay on M14 was 36.2 µM (inactive); with MCF7 it was 2.47 µM (inactive); with MDA-N, 37.2 µM (inactive); in the assay on NCI-H23, 34 µM (inactive); with NCI-H460, 22.3 µM (inactive); in the assay with NCI/ADR-RES it was 41.8 µM (inactive). Besides, the GI50 in the assay on OVCAR-8 was 36.6 µM (inactive); in the assay on SF-295 it was > 95.1 µM (inactive); in the assay on SK-MEL-2 it was 65.5 µM (inactive); in the assay on SR it was 1.26 µM (inactive); with T47D, 19.5 µM (inactive); with TK-10 it was 30.3 µM (inactive).

With `C=C1C[C@H](O)[C@H](Br)C(C)(C)C12CCC(C)(Cl)C(Br)C2` (some centres undefined), the GI50 is 5.09 µM (inactive) in the assay on CAKI-1; 0.0359 µM (active) in the assay on CCRF-CEM; 2.26 µM (inactive) with HOP-62; 1.5 µM (inactive) with HOP-92; 4.38 µM (inactive) with IGROV-1; 10 µM (inactive) in the assay with LOX IMVI. Further, the GI50 is 2.36 µM (inactive) with M14; 3.25 µM (inactive) in the assay with MCF7; 1.39 µM (inactive) in the assay on MDA-N; 0.445 µM (active) in the assay on NCI-H23; 1.69 µM (inactive) in the assay on NCI-H460; 4.58 µM (inactive) in the assay with NCI/ADR-RES. In addition, the GI50 is 1.23 µM (inactive) in the assay with OVCAR-8; 1.19 µM (inactive) with SF-295; 1 µM (active) in the assay on SK-MEL-2; 2.19 µM (inactive) in the assay on SR; 0.746 µM (active) with T47D; 3.15 µM (inactive) with TK-10.

For the compound `CCN(CC)CC(O)c1ccc2ccc3ccccc3c2c1` (centres undefined), the GI50 was 13.1 µM (inactive) with CAKI-1; 23.7 µM (inactive) in the assay with CCRF-CEM; 16.1 µM (inactive) in the assay with HOP-62; 14.2 µM (inactive) with HOP-92; 16.2 µM (inactive) in the assay with IGROV-1; 17.9 µM (inactive) with LOX IMVI. Besides, the GI50 is 16.3 µM (inactive) with M14; 14.8 µM (inactive) in the assay on MCF7; 15.6 µM (inactive) in the assay with MDA-N; 16.9 µM (inactive) in the assay on NCI-H23; 17.5 µM (inactive) with NCI-H460; 16.3 µM (inactive) in the assay on NCI/ADR-RES. Also, the GI50 in the assay on OVCAR-8 was 16.7 µM (inactive); in the assay with SF-295 it was 15.2 µM (inactive); in the assay on SK-MEL-2 it was 16.1 µM (inactive); with SR, 5.69 µM (inactive); in the assay with T47D it was 20 µM (inactive); in the assay with TK-10 it was 15.8 µM (inactive).

`C=C1C(=O)OC2/C=C(\CO)C3OC3C3OC3(C)CC(OC(=O)/C(=C/C)CO)C12` (centres undefined): the GI50 is 28.3 µM (inactive) in the assay with CAKI-1; 9.33 µM (inactive) with CCRF-CEM; > 100 µM (inactive) in the assay on HOP-62; > 100 µM (inactive) with HOP-92; > 100 µM (inactive) in the assay with IGROV-1; 48.6 µM (inactive) in the assay on LOX IMVI. Further, the GI50 in the assay on M14 was > 100 µM (inactive); in the assay with MCF7, 34.8 µM (inactive); with MDA-N, 36.6 µM (inactive); with NCI-H23, 60.3 µM (inactive); in the assay with NCI-H460, > 100 µM (inactive); in the assay on NCI/ADR-RES, > 100 µM (inactive). The GI50 in the assay with OVCAR-8 was 86.3 µM (inactive); in the assay with SF-295, > 100 µM (inactive); with SK-MEL-2, > 100 µM (inactive); with SR it was 28.2 µM (inactive); in the assay on T47D, 92.9 µM (inactive); in the assay on TK-10, > 100 µM (inactive).

With `COc1ccc(OC)c(-c2nc3n(c2/C=C2/C(=O)Nc4ccccc42)CCS3)c1`, the GI50 with CAKI-1 is 51.4 µM (inactive); in the assay with CCRF-CEM, 35 µM (inactive); with HOP-62 it was 58.6 µM (inactive); with HOP-92, 48.6 µM (inactive); in the assay with IGROV-1, 36 µM (inactive); with LOX IMVI, 51.2 µM (inactive). Moreover, the GI50 in the assay with M14 is 37.4 µM (inactive); with MCF7, 46.7 µM (inactive); in the assay on MDA-N, 18.2 µM (inactive); with NCI-H23, > 100 µM (inactive); in the assay on NCI-H460, 35 µM (inactive); with NCI/ADR-RES, 34.8 µM (inactive). Besides, the GI50 in the assay with OVCAR-8 was 68.1 µM (inactive); in the assay on SF-295, 29.4 µM (inactive); with SK-MEL-2 it was 26 µM (inactive); with SR, 32.8 µM (inactive); with T47D, 35.1 µM (inactive); in the assay with TK-10, 41.2 µM (inactive).
